Results from ChEMBL document CHEMBL4765362, “Thirty Years of HDAC Inhibitors: 2020 Insight and Hindsight” (J Med Chem, 2020).

Experiments:
Histone deacetylase 11 = molecular target: T1, Histone deacetylase 11 (Homo sapiens, UniProt Q96DB2); assay: Inhibition of human C-terminal Flag-tagged HDAC11 expressed in sf9 cells using Boc-Lys(Ac)-AMC as substrate preincubated for 10 mins followed by substrate addition by fluorometry
T1 sequence (Q96DB2 whole entry): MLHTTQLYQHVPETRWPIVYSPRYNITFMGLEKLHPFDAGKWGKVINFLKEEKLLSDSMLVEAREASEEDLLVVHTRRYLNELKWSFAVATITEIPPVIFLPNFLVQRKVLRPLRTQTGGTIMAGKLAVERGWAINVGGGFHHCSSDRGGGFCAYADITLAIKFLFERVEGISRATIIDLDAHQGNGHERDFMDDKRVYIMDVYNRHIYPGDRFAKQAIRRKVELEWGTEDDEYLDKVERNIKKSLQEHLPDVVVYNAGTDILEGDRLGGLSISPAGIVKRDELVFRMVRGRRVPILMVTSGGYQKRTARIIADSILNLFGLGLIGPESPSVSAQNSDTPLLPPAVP

Histone deacetylase 1 [1] = molecular target: T2, Histone deacetylase 1 (Homo sapiens, UniProt Q13547); assay: Inhibition of human HDAC1 using Boc-Lys(Ac)-AMC as substrate preincubated for 30 mins followed by substrate addition and measured after 60 mins by […] assay
T2 sequence (Q13547 whole entry): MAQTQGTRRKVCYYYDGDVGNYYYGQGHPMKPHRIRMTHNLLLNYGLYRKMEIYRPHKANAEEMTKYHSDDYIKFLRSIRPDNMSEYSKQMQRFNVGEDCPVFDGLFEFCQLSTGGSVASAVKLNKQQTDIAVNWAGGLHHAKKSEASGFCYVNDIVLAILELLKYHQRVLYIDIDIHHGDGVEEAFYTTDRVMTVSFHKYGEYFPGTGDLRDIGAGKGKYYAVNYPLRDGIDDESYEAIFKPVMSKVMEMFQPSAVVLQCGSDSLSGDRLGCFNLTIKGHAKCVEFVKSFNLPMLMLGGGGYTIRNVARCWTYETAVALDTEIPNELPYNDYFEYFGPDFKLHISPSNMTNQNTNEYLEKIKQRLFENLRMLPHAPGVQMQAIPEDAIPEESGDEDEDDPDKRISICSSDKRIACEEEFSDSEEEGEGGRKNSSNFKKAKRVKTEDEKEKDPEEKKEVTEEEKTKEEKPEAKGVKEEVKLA

Histone deacetylase 3 [2] = molecular target: T3, Histone deacetylase 3 (Homo sapiens, UniProt O15379); assay: Inhibition of human HDAC3 using Boc-Lys(Ac)-AMC as substrate preincubated for 30 mins followed by substrate addition and measured after 60 mins by […] assay
T3 sequence (O15379 whole entry): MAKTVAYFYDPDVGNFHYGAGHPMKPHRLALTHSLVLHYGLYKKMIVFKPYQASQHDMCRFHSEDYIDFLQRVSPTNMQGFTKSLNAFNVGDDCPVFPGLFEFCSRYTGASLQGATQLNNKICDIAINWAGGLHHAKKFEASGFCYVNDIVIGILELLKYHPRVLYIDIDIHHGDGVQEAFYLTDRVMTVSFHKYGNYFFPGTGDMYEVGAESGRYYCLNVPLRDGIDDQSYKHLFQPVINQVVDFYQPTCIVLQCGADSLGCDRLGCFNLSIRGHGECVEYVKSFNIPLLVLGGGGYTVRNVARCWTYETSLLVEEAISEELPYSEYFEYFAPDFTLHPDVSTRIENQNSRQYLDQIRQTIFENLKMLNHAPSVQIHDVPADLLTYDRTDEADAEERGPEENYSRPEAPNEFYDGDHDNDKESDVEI

[3] = molecular target: T4, Protein deacetylase HDAC6 (Homo sapiens, UniProt Q9UBN7); assay: Inhibition of human HDAC6 using Boc-Lys(Ac)-AMC as substrate preincubated for 30 mins followed by substrate addition and measured after 60 mins by […]
T4 sequence (Q9UBN7 whole entry): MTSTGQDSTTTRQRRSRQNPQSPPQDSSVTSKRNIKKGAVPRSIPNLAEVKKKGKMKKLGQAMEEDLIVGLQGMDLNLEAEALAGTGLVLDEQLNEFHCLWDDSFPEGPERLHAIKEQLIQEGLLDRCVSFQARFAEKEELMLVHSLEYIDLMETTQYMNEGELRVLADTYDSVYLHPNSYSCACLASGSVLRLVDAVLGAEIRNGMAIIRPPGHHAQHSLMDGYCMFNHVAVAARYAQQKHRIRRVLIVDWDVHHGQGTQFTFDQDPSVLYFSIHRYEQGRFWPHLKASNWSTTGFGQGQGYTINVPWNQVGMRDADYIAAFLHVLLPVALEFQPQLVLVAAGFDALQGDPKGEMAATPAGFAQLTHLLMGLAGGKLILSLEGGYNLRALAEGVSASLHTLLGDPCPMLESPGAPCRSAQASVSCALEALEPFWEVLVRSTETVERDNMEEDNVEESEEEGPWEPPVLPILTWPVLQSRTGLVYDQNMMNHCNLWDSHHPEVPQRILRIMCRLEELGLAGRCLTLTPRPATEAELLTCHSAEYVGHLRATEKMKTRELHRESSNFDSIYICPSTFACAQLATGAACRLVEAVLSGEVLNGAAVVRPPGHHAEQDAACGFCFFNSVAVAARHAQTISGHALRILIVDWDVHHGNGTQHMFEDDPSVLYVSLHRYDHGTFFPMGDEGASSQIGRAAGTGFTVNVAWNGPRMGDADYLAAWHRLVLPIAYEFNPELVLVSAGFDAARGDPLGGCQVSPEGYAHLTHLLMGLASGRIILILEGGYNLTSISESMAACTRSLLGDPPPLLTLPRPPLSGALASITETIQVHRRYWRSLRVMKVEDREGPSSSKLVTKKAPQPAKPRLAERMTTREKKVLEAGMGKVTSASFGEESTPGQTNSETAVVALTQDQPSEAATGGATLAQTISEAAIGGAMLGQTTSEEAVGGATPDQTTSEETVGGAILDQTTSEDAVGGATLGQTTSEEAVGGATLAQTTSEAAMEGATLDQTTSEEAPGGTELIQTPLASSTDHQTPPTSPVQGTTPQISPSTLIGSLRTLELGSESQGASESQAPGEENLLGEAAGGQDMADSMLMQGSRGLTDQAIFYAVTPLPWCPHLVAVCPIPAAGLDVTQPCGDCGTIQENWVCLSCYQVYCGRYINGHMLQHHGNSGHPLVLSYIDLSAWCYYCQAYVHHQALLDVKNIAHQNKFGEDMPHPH

Histone deacetylase 4 [4] = molecular target: T5, Histone deacetylase 4 (Homo sapiens, UniProt P56524); assay: Inhibition of human HDAC4 using Boc-Lys(tri-fluoracetyl)-AMC as substrate preincubated for 30 mins followed by substrate addition and measured after 60 mins by […] assay
T5 sequence (P56524 whole entry): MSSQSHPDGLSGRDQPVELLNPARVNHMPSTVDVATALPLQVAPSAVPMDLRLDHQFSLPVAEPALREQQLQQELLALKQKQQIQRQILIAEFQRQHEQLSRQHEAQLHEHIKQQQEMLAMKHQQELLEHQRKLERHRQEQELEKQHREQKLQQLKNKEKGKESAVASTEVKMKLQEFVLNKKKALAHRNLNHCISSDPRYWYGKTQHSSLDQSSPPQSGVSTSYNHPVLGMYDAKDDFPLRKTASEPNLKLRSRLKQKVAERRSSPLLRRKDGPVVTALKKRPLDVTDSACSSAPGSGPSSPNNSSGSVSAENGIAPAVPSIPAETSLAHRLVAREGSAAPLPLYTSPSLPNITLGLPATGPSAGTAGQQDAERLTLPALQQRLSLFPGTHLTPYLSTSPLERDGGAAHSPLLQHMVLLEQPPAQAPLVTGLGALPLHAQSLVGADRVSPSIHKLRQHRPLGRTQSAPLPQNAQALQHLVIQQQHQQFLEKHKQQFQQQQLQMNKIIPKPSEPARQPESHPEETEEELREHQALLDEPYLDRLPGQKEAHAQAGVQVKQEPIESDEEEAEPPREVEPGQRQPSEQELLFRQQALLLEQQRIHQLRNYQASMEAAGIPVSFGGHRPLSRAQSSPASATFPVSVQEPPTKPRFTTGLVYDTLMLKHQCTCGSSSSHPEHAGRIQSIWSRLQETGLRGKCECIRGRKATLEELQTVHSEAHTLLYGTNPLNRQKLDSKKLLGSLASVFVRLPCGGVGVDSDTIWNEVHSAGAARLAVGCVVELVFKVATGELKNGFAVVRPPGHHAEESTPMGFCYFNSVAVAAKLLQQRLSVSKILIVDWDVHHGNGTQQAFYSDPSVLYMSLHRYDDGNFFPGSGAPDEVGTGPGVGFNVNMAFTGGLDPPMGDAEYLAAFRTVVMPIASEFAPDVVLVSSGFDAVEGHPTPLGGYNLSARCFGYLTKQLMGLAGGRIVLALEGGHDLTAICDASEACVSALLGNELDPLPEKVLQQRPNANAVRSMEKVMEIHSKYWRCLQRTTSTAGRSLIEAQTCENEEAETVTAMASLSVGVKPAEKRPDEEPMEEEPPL

Histone deacetylase 4 [5] = molecular target: T5, Histone deacetylase 4; assay: Binding affinity to human full length N-terminal GST-tagged HDAC4 by surface plasmon resonance analysis
[6] = molecular target: T6, Polyamine deacetylase HDAC10 (Homo sapiens, UniProt Q969S8); assay: Inhibition of recombinant human HDAC10 (2 to 631 residues) expressed in baculovirus infected sf9 cells using Fluor-de-lys as substrate preincubated for 15 mins followed by substrate addition and measured after 60 mins by fluorescence method
T6 sequence (Q969S8 whole entry): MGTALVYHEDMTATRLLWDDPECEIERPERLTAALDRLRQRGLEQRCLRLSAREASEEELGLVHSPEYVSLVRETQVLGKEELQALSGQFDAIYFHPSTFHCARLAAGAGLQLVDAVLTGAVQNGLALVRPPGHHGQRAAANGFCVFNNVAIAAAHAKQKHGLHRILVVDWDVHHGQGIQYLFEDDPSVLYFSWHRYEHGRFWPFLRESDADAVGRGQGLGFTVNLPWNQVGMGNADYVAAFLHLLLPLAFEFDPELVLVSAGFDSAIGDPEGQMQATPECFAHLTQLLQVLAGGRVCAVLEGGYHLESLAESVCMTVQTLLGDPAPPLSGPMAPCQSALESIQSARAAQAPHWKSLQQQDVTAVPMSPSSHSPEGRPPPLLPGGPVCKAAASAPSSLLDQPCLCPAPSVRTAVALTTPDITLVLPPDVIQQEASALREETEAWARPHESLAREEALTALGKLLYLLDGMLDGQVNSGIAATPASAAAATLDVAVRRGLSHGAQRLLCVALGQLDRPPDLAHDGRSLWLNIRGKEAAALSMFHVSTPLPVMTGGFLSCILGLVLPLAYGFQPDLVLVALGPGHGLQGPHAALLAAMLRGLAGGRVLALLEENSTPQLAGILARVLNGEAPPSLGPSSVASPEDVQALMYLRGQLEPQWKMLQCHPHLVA

Histone deacetylase 9 [7] = molecular target: T7, Histone deacetylase 9 (Homo sapiens, UniProt Q9UKV0); assay: Inhibition of C-terminal His-tagged human HDAC9 (604 to 1066 residues) expressed in baculovirus infected sf9 cells using Boc-L-Lys-MCA as substrate preincubated for 15 mins followed by substrate addition and measured after 60 mins by fluorescence method
T7 sequence (Q9UKV0 whole entry, the tested form may be a part): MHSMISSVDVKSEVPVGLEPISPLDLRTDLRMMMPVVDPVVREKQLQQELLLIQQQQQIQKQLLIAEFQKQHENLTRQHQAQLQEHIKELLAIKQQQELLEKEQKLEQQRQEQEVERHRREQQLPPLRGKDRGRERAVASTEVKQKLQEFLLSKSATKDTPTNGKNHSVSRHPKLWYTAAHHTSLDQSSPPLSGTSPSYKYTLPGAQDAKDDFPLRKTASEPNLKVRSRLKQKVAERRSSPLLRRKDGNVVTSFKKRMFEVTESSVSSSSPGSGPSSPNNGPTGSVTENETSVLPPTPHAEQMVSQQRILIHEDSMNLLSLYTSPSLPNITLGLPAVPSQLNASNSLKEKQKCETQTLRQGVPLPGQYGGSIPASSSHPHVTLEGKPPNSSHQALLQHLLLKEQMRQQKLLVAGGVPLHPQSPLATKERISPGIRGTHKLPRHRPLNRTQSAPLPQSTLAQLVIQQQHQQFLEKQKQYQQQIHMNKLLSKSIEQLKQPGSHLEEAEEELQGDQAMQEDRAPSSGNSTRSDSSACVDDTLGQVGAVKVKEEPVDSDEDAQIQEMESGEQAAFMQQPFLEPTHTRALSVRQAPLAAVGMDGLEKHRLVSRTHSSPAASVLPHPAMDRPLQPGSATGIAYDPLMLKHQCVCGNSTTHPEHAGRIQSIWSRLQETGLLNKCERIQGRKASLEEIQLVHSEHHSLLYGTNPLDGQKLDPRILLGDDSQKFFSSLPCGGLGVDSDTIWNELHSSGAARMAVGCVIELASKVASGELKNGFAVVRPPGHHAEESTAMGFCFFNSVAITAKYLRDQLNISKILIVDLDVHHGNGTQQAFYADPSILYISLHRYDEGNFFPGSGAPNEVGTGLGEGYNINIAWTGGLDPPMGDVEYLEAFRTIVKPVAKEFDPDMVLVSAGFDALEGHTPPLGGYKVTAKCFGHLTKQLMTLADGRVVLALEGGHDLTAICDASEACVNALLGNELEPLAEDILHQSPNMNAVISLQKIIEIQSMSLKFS

Histone deacetylase 4 [8] = molecular target: T5, Histone deacetylase 4; assay: Inhibition of human HDAC4 expressed in baculovirus infected sf9 cells using Boc-L-Lys-MCA as substrate preincubated for 15 mins followed by substrate addition and measured after 60 mins by fluorescence method
Histone deacetylase 5 [9] = molecular target: T8, Histone deacetylase 5 (Homo sapiens, UniProt Q9UQL6); assay: Inhibition of human HDAC5 using Boc-L-Lys-MCA as substrate preincubated for 15 mins followed by substrate addition and measured after 60 mins by fluorescence method
T8 sequence (Q9UQL6 whole entry): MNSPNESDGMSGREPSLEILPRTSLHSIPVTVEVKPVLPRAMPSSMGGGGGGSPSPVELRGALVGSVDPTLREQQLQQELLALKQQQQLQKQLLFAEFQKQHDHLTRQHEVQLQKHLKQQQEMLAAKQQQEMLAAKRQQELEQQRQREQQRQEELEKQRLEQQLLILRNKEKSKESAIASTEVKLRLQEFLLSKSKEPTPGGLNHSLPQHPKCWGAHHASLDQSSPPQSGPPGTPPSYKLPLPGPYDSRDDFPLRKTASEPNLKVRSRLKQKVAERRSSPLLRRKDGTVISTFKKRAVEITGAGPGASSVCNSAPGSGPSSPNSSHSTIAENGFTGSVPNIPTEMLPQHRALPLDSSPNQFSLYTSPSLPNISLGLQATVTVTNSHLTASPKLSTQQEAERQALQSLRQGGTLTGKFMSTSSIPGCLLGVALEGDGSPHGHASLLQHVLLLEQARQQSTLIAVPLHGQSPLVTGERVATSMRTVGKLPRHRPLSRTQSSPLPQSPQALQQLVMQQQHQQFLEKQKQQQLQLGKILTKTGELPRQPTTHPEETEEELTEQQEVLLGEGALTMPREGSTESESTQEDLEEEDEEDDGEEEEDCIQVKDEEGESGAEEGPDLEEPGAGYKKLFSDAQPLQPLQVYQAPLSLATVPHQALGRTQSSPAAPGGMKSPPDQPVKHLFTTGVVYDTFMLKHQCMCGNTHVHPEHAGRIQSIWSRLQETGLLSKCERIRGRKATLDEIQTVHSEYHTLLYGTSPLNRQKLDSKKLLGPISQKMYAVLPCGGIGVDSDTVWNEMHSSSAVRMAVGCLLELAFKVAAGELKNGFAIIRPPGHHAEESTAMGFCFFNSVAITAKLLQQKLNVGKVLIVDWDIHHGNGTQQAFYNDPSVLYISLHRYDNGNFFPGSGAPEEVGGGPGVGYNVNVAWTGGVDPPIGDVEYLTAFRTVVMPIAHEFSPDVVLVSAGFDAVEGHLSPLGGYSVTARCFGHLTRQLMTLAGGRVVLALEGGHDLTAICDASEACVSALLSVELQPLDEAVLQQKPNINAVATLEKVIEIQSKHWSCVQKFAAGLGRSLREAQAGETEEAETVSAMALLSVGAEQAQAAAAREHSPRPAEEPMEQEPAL

[10] = Inhibition of LSD1-HDAC1-CoREST (unknown origin) using Boc-(Ac)Lys-AMC as substrate incubated for 20 mins by fluorescence-based assay; design: species or system Homo sapiens
Histone deacetylase 2 [11] = molecular target: T9, Histone deacetylase 2 (Homo sapiens, UniProt Q92769); assay: Inhibition of human HDAC2 expressed in Sf9 cells using Ac-Leu-Gly-Lys(Ac)-AMC as substrate measured every 30 secs for 60 mins by fluorescence-based assay
T9 sequence (Q92769 whole entry): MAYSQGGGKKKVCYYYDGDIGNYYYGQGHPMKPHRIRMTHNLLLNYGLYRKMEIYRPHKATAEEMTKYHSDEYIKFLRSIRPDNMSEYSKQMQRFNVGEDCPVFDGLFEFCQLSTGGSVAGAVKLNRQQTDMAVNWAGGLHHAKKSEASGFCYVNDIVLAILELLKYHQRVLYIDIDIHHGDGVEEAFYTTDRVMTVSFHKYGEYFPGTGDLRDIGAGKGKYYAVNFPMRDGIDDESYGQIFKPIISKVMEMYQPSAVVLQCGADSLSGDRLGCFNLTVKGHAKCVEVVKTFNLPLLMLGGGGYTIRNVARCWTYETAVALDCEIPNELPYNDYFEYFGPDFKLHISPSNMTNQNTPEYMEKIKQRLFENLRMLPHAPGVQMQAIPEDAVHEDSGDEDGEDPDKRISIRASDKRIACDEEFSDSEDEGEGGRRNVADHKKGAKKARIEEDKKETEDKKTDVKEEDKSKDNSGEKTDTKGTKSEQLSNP

Histone deacetylase 1 [12] = molecular target: T2, Histone deacetylase 1; assay: Inhibition of HDAC1 (unknown origin) using Ac-Leu-Gly-Lys(Ac)-AMC as substrate measured every 30 secs for 60 mins by fluorescence-based assay
[13] = molecular target: Histone deacetylase 3/Nuclear receptor corepressor 2 (HDAC3/NCoR2) (Homo sapiens, UniProt O15379); assay: Inhibition of human C-terminal His-tagged HDAC3 (1 to 428 residues)/human N-terminal GST-tagged NcoR2 (395 to 489 residues) expressed in sf9 cells using Ac-Leu-Gly-Lys(Ac)-AMC as substrate measured every 30 secs for 60 mins by fluorescence-based assay
Histone deacetylase 1 [14] = molecular target: T2, Histone deacetylase 1; assay: Inhibition of HDAC1 (unknown origin)
Histone deacetylase 2 [15] = molecular target: T9, Histone deacetylase 2; assay: Inhibition of HDAC2 (unknown origin)
Histone deacetylase 3 [16] = molecular target: T3, Histone deacetylase 3; assay: Inhibition of HDAC3 (unknown origin)
[17] = molecular target: T6, Polyamine deacetylase HDAC10; assay: Inhibition of recombinant human N-terminal FLAG-tagged HDAC10 (2 to 631 residues) expressed in baculovirus infected sf9 cells using p53 (379 to 382 residues) (Arg-His-Lys(Ac)-Lys(Ac)) as substrate by fluorimetric assay
Histone deacetylase 8 = molecular target: T10, Histone deacetylase 8 (Homo sapiens, UniProt Q9BY41); assay: Inhibition of recombinant human C-terminal His-tagged HDAC8 expressed in baculovirus infected sf9 cells using p53 (379 to 382 residues) (Arg-His-Lys(Ac)-Lys(Ac)) by fluorimetric assay
T10 sequence (Q9BY41 whole entry): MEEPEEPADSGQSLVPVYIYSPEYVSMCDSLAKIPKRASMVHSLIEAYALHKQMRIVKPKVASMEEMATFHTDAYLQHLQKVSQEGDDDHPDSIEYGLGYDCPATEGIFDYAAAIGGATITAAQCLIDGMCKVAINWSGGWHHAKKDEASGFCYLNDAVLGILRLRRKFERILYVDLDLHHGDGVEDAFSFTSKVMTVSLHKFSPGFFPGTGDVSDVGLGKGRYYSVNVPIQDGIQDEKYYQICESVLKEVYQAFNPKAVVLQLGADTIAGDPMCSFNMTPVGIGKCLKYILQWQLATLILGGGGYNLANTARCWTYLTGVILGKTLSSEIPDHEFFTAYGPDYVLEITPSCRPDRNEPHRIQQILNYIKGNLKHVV

Histone deacetylase 9 [18] = molecular target: T7, Histone deacetylase 9; assay: Inhibition of human HDAC9 expressed in baculovirus infected sf9 cells using (Boc-Lys(trifluoroacetyl)-AMC) as substrate by fluorescence-based assay
Histone deacetylase 5 [19] = molecular target: T8, Histone deacetylase 5; assay: Inhibition of human HDAC5 expressed in baculovirus infected sf9 cells using (Boc-Lys(trifluoroacetyl)-AMC) as substrate by fluorescence-based assay
[20] = molecular target: T6, Polyamine deacetylase HDAC10; assay: Inhibition of HDAC10 (unknown origin)

Which IC50 (Histone deacetylase 11) does the source give for `Nc1ccccc1NC(=O)c1ccc(CNc2nccc(-c3cccnc3)n2)cc1` [MOCETINOSTAT] here?
Its IC50 is 600 nM.

Which IC50 (Histone deacetylase 1 [1]) does the source give for `N=C1Sc2ccccc2C2=NCCCN12` here?
Its IC50 is 4000 nM.

And the IC50 (Histone deacetylase 3 [2])?
The IC50 was > 50000 nM.

What about the IC50 [3] of the same compound?
The IC50 was 7000 nM.

What about the IC50 (Histone deacetylase 4 [4]) of the same compound?
The IC50 was 9000 nM.

For `COc1cccc2c1c(O)c(C(=O)N(C)c1ccc(C(F)(F)F)cc1)c(=O)n2C` [TASQUINIMOD], which Kd (Histone deacetylase 4 [5]) is on record?
The Kd was 10 nM.

For `CCN(CC)Cc1ccc2cc(COC(=O)Nc3ccc(C(=O)NO)cc3)ccc2c1` [GIVINOSTAT], which IC50 [6] is on record?
The IC50 was 331 nM.

What about the IC50 (Histone deacetylase 9 [7]) of the same compound?
The IC50 was 512 nM.

What about the IC50 (Histone deacetylase 4 [8]) of the same compound?
The IC50 was > 1000 nM.

What about the IC50 (Histone deacetylase 5 [9]) of the same compound?
The IC50 was 532 nM.

With `Cc1ncsc1-c1ccc(CNC(=O)[C@@H]2C[C@@H](O)CN2C(=O)[C@@H](NC(=O)CCCCCCCCCCC(=O)Nc2ccc(C(=O)Nc3cc(-c4ccccc4)ccc3N)cc2)C(C)(C)C)cc1` as the compound, how does the IC50 [10] read?
Its IC50 is 17000 nM.

For `C/C=C1\NC(=O)[C@@H](C)NC(=O)[C@@H](C(C)C)NC(=O)C[C@@H](CCC)OC(=O)[C@H](C(C)C)NC1=O`, which Ki (Histone deacetylase 2 [11]) is on record?
The Ki was 370 nM.

And the Ki (Histone deacetylase 1 [12])?
The Ki was 690 nM.

What about the Ki [13] of the same compound?
Its Ki is 800 nM.

Which IC50 (Histone deacetylase 1 [14]) does the source give for `Cc1cn(C)nc1CN1CCC(c2ccc(C(=O)Nc3ccccc3N)cc2)CC1` here?
Its IC50 is 100 nM.

And the IC50 (Histone deacetylase 2 [15])?
The IC50 was 600 nM.

And the IC50 (Histone deacetylase 3 [16])?
Its IC50 is 600 nM.

For `CCCCNNC(=O)c1ccc(Br)cc1`, which IC50 [17] is on record?
The IC50 was 15000 nM.

And the IC50 (Histone deacetylase 8)?
The IC50 was 2000 nM.

Which IC50 (Histone deacetylase 9 [18]) does the source give for `CN(C)Cc1c(C(=O)NCCOc2ccc(C(=O)NO)cc2)oc2ccccc12` [ABEXINOSTAT] here?
The IC50 was 168 nM.

And the IC50 (Histone deacetylase 5 [19])?
Its IC50 is 48 nM.

Which IC50 (Histone deacetylase 9 [18]) does the source give for `Cn1cc(CNCC2CCN(c3ncc(C(=O)NO)cn3)CC2)c2ccccc21` [QUISINOSTAT] here?
The IC50 was 32 nM.

What about the IC50 (Histone deacetylase 5 [19]) of the same compound?
Its IC50 is 4 nM.

And the IC50 [20]?
Its IC50 is 0.5 nM.
